These results are taken from patent US6358517B1, “Cosmetic compositions containing resveratrol and retinoids” (Unilever Home & Personal Care USA, division of Conopco, priority 1999, dated 2002).

The subject of experiment [1] is Cellular Retinoic Acid Binding Protein 2 (CRABP-2). The experiment in a line: CRABP-2 expression in pig skin organ culture (epidermis), Western blot. In kind it is cell-based. The following applies: for effects on CRABP-2 expression (in words): alone, pig skin epidermis, summary of Table 1. The procedure: 7 mm pig skin biopsies were taken, plated in serum free DMEM, and incubated for 2 days. The media was then switched to phenol-red free media. The biopsies were topically treated with resveratrol for 24 hrs in 5 μl ethanol per biopsy. After 24 hours, retinoids were topically applied to the biopsies. The treated biopsies were incubated for 4 days thereafter. After treatment phase, the biopsies were rinsed in 1×phosphate-buffer twice and then frozen at −20° C. for future use. The epidermis and dermis was separated by freezing and scraping off the epidermis. The epidermis was collected and homogenized in lysis buffer (contains 1×PBS, 1% TritonX, 0.5% sodium deoxycholate, 0.1% SDS containing protease inhibitor (10 mg/ml PMSF in isopropanol at 10 μl/ml, Aprotinin 30 μl/ml and 100 mM sodium orthovanadate at 10 μl/ml). This homogenate was then spun at 14000 rpm and the supernatant was collected for determining protein (aliquot of the supernatant for protein determination).
Within the cells, retinol and retinoic acid are bound to specific cellular binding proteins. […] These proteins regulate the intracellular concentration of retinoids by acting as either storage or shuttle proteins in retinoid metabolism. The levels of CRABP protein are regulated by the amount of retinoic acid within the cells. Higher cellular levels of retinoids increase the expression of CRABP-2. Therefore, the amount of this protein in the cells, is a measure of the retinoid activity of the cells. Skin cells contain high levels of CRABP-2 both in the epidermis and the dermis. […] Increase in CRABP-2 is also associated with increased epidermal differentiation, and dermal retinoid action. Therefore, in these studies we used CRABP-2 expression of fibroblasts and pig skin epidermis as a measure of retinoid activity leading to increased epidermal differentiation (skin conditioning and dry skin benefit) and dermal collagen and extracellular matrix synthesis (antiaging, anti wrinkling benefits).
To measure the levels of CRABP-2 in the fibroblast and pig skin extracts prepared as described above, the cell supernatant was re-suspended in 4×sample buffer and 10% BME, boiled for 5 minutes and used for western blotting. […] The gels were transferred to PVDF membranes and Western Blotting was carried out using monoclonal antibodies to CRABP-2 according to standard procedures. The CRABP-2 protein band was visualized in the Western Blots using the chemiluminescence system obtained from Boehringer Mannheim (Indianopolis, Ind.). The bands in the film were quantified by densitometric scanning, the data from triplicate samples were calculated as % of control and expressed in the following tables as % increase over control (with control as 100%) +/− standard deviation.
A general note: Immunoblotting shows a protein as a band on a membrane.

Experiment [2] has the same test system. The experiment in a line: CRABP-2 expression in human adult skin fibroblasts, Western blot. The following applies: for CRABP-2 expression in skin fibroblasts in combination with resveratrol (in words): retinoid combined with resveratrol, summary of Tables 2A and 2B. In kind it is cell-based. As for the experimental part:
Human adult fibroblasts obtained from sun-protected inner arm of the […] were used. Cells were grown in 1:1 DMEM/Hams F12 media containing 10% FBS, maintained at 37° C. in a 5% CO2 atmosphere under normal atmospheric oxygen tension. Third passage adult fibroblasts were grown in DMEM media with 10% FBS in 12-well plates at a seeding density of 40,000 cells/ml/well. The cells at 80% confluence were rinsed in serum free and phenol red free (PRF) DMEM media twice. Cells were pretreated with resveratrol for 4 hours was conducted and then dosed with retinoids and incubated for a further 48 hours. After the incubation, the wells were washed twice with 1×PBS and the cell monolayer was harvested in 100 μl cell lysis buffer (contained 1×PBS, 1% TritonX, 0.5% sodium deoxycholate, 0.1% SDS containing protease inhibitor (10 mg/ml PMSF in isopropanol, 10 μl/ml). The suspension was spun at 14000 rpm for 10 minutes, the supernatant collected and an aliquot of this supernatant was used for protein quantification. Protein concentration was determined using Pierce protein kit. The remainder of 1 00ul supernatant (cell lysate) was denatured in a mixture of 40 μl sample buffer (NOVEX) and 0.5% Beta mercaptoethanol (BME) and by boiling the sample for 5 minutes.
Within the cells, retinol and retinoic acid are bound to specific cellular binding proteins. Two of the major proteins are CRABP-1 and CRABP-2 (Roos et al., Pharmacological reviews: 50, 315-333, 1998). These proteins regulate the intracellular concentration of retinoids by acting as either storage or shuttle proteins in retinoid metabolism. The levels of CRABP protein are regulated by the amount of retinoic acid within the cells. Higher cellular levels of retinoids increase the expression of CRABP-2. Therefore, the amount of this protein in the cells, is a measure of the retinoid activity of the cells. Skin cells contain high levels of CRABP-2 both in the epidermis and the dermis. CRABP-2 response to retinoid administration in fibroblasts in vitro is used as a reproducible measure of retinoid bioactivity that predict human skin responses (Elder et al., J. Invest. Dermatol., 106: 517-521, 1996). Increase in CRABP-2 is also associated with increased epidermal differentiation, and dermal retinoid action. Therefore, in these studies we used CRABP-2 expression of fibroblasts and pig skin epidermis as a measure of retinoid activity leading to increased epidermal differentiation (skin conditioning and dry skin benefit) and dermal collagen and extracellular matrix synthesis (antiaging, anti wrinkling benefits).
To measure the levels of CRABP-2 in the fibroblast and pig skin extracts prepared as described above, the cell supernatant was re-suspended in 4×sample buffer and 10% BME, boiled for 5 minutes and used for western blotting. Equal amounts of protein were loaded onto 16% Tris-glycine gels for CRABP-2 protein analysis by SDS-PAGE and Western Immuno-blotting. The gels were transferred to PVDF membranes and Western Blotting was carried out using monoclonal antibodies to CRABP-2 according to standard procedures. The CRABP-2 protein band was visualized in the Western Blots using the chemiluminescence system obtained from Boehringer Mannheim (Indianopolis, Ind.). The bands in the film were quantified by densitometric scanning, the data from triplicate samples were calculated as % of control and expressed in the following tables as % increase over control (with control as 100%) +/− standard deviation. […]

Setting [3] is: Table 2B, 10 μM Resveratrol alone.
The mark [4] stands for this setting: Table 2B, 10 μM Retinoic acid alone.
Where [5] appears, read: Homo sapiens, Skin fibroblast, Table 2A, 100 nM alone, read-out: % of Control.

Turning to `Oc1ccc(/C=C/c2cc(O)cc(O)c2)cc1` [Resveratrol, 5-parahydroxystyryl resorcinol], the activity at 50 µM in experiment [1] (Sus scrofa, Experiment 1, 50 μM, topical on pig skin biopsies, read-out: CRABP-2, Alone (% of control, control as 100%)) was found to be 143%. In addition, the activity at 20 µM in experiment [1] (Sus scrofa, Experiment 2, 20 μM, topical on pig skin biopsies, read-out: CRABP-2, Alone (% of control, control as 100%)) stood at 242%. Further, the “effects on CRABP-2 expression (in words)” value in experiment [1] was “only minimal, insignificant effects”. In experiment [2] (Homo sapiens, Skin fibroblast, Table 2A, 10 μM alone, read-out: % of Control), the activity at 10 µM is 27%. Also, the CRAB-2 production in experiment [2] (Table 2A, 10 μM alone) is 0.416 +/− 0.12. Also, in experiment [2] (setting [3]), the “% as Control” value is given as 32 +/− 1% and the CRABP-2 production is on record as 0.185.

As for `CC1=C(/C=C/C(C)=C/C=C/C(C)=C/C(=O)O)C(C)(C)CCC1` [Retinoic acid], the activity at 0.001 µM in experiment [2] (Homo sapiens, Skin fibroblast, Table 2A, 1 nM alone, read-out: % of Control) worked out at 132%. Further, the activity at 0.01 µM in experiment [2] (Homo sapiens, Skin fibroblast, Table 2A, 10 nM alone, read-out: % of Control) was 165%. Also, the CRAB-2 production in experiment [2] (Table 2A, 1 nM alone) was 2.056 +/− 0.50; in experiment [2] (Table 2A, 10 nM alone), 2.566 +/− 0.19. Further, the “% as Control” value in experiment [2] (setting [4]) is 574 +/− 60%; in experiment [2] (Table 3, 10 nM alone) it was 266 +/− 80%. Also, the CRABP-2 production in experiment [2] (setting [4]) is 3.27 +/− 0.34; in experiment [2] (Table 3, 10 nM alone), 1.201 +/− 0.36.

Take `CC1=C(/C=C/C(C)=C/C=C/C(C)=C/CO)C(C)(C)CCC1` [Retinol]: in experiment [1] (Sus scrofa, Experiment 2, 5 μM, topical on pig skin biopsies, read-out: CRABP-2, Alone (% of control, control as 100%)), the activity at 5 µM stood at 345%. Further, in experiment [1], the “effects on CRABP-2 expression (in words)” value is listed as “significantly higher stimulation”. Further, in experiment [2] (Table 2B, 1 μM alone), the “% as Control” value is given as 270 +/− 73% and the CRABP-2 production is given as 1.54 +/− 0.41. In experiment [2] (Table 3, 100 nM alone), the “% as Control” value is given as 308 +/− 108% and the CRABP-2 production is 1.387 +/− 0.49. Moreover, the “CRABP-2 expression in skin fibroblasts in combination with resveratrol (in words)” value in experiment [2] is “effective”.

Take `CC(=O)OC/C=C(C)/C=C/C=C(C)/C=C/C1=C(C)CCCC1(C)C` [Retinyl Acetate]: in experiment [2] (setting [5]), the activity at 0.1 µM was determined as 56%. Further, the “CRABP-2 expression in skin fibroblasts (in words)” value is “ineffective” in experiment [2] (Low levels (100 nm), either alone or in combination with resveratrol) and “stimulated CRABP-2 expression” in experiment [2] (higher levels (Table 2B), in the presence of reveratrol). The CRAB-2 production in experiment [2] (Table 2A, 100 nM alone) was 0.876 +/− 0.20. The “% as Control” value is given as 178 +/− 102% in experiment [2] (Table 2B, 1 μM alone) and 124 +/− 42% in experiment [2] (Table 3, 100 nM alone). Also, the CRABP-2 production in experiment [2] (Table 2B, 1 μM alone) was 1.01 +/− 0.58; in experiment [2] (Table 3, 100 nM alone), 0.561 +/− 0.19.

`CCCCC/C=C\C/C=C\CCCCCCCC(=O)OC/C=C(C)/C=C/C=C(C)/C=C/C1=C(C)CCCC1(C)C` [Retinyl Linoleate]: in experiment [2] (Table 2A, 100 nM alone), the “% of Control” value is reported as 57 +/− 14% and the CRAB-2 production is 0.88 +/− 0.23. Further, the “% as Control” value in experiment [2] (Table 2B, 1 μM alone) is reported as 112 +/− 75%. Besides, in experiment [2] (Table 3, 100 nM alone), the “% as Control” value was 253 +/− 127% and the CRABP-2 production is listed as 1.141 +/− 0.57.

Take `CCCCCCCCCCCCCCCC(=O)OC/C=C(C)/C=C/C=C(C)/C=C/C1=C(C)CCCC1(C)C` [Retinyl Palmitate]: the activity at 0.1 µM in experiment [2] (setting [5]) worked out at 25%. Moreover, in experiment [2] (Table 2A, 100 nM alone), the CRAB-2 production is 0.376 +/− 0.11. Moreover, in experiment [2] (Table 2B, 1 μM alone), the “% as Control” value is 503 +/− 260% and the CRABP-2 production is recorded as 2.87 +/− 1.48. In experiment [2] (Table 3, 100 nM alone), the “% as Control” value is 254 +/− 101% and the CRABP-2 production was 1.143 +/− 0.45. Further, the “CRABP-2 expression in skin fibroblasts in combination with resveratrol (in words)” value in experiment [2] is “not effective”.
